Test results: US8772576B2, “Herbicide-resistant inoculant strains” (priority 2009, dated 2014)

Assays:
[1] = test system: herbicide resistant mutants of B. japonicum strain ABM 201; experiment: Growth of glyphosate-resistant mutant on Vincent's YEM agar amended with glyphosate; format: cell-based, Bradyrhizobium japonicum; settings: 80 ppm glyphosate; exemplary embodiment (resistant mutant)
Experimental: (§1) After the plates were sufficiently dry, about 10^8 to 5×10^8 colony-forming units (CFU) of the parent bacteria (ABM201) (Advanced Biological Marketing, Van Wert, Ohio), determined by serial dilution and plating on nonselective medium, were spread with a sterile, bent glass rod. The plates were carefully wrapped with Parafilm® to prevent the desiccation of the agar growth medium during prolonged incubation. The plates were then incubated at room temperature to 30° C. for approximately 2 to 3 weeks.
Colonies that developed resembled the parent strain and its growth characteristics on non-selective YEM medium. The colonies were convex, entirely opaque, smooth, and only about 1 mm in diameter after 10-14 days of incubation. Mutant frequency was about 5×10^−7 to 1×10^−6.

parent strain ABM201 = experiment: Growth of parent strain on Vincent's YEM agar amended with glyphosate; format: cell-based, Bradyrhizobium japonicum
Experimental: as §1

O=C(O)CNCP(=O)(O)O [glyphosate, N-(phosphonomethyl)glycine]
growth and viability on glyphosate [1]: normal growth and viability
glyphosate concentration that totally inhibits the parent strain (parent strain ABM201): less than 40 ppm
